The values that follow come from US9556159B2, “Renin inhibitor” (MITSUBISHI TANABE PHARMA CORPORATION, priority 2012, dated 2017).

A word on the IC50: it is the point on the concentration scale where inhibition reaches its midpoint.

This test has as its target T1, Recombinant human renin (Homo sapiens, UniProt P00797).
T1 sequence (P00797 67-406): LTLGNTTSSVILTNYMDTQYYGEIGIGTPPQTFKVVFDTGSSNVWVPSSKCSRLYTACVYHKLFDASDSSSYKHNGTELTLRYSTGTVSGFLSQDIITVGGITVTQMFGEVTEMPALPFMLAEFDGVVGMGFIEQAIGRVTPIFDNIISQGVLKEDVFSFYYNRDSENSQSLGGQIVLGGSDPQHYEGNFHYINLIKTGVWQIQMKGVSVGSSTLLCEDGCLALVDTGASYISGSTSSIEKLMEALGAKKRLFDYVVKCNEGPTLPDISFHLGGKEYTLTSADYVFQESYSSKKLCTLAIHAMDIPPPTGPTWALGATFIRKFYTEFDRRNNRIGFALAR
Nature of the test: Inhibitory activity against human renin (fluorogenic peptide substrate). It is filed as biochemical. To be noted: 50% inhibitory concentration (IC50) against human renin, 37° C. for 1 hour.
`COC(=O)NCCCc1cc([C@@H](C)N(C(=O)[C@H]2CNCCO2)C2CC2)sc1-c1ccccc1C(=O)OC` [Example 268]: the IC50 worked out at 0.5 nM.
In the case of `COC(=O)NCCCc1cc([C@@H](C)N(C(=O)[C@H]2CNCCO2)C2CC2)sc1-c1ccccc1NS(C)(=O)=O` [Example 269], the IC50 was 0.3 nM.
In the case of `COC(=O)NCCCc1cc([C@@H](C)N(C(=O)[C@H]2CNCCO2)C2CC2)sc1-c1ccccc1-c1nnn[nH]1` [Example 270], the IC50 turned out to be 0.5 nM.
Consider `COC[C@H]1CO[C@@H](C(=O)N(C2CC2)[C@H](C)c2cc(CCCNC(=O)OC)nc(OC)c2)CN1` [Example 271], for which the IC50 was 3 nM.
Regarding `COC(=O)NCCCc1cc([C@@H](C)N(C(=O)[C@H]2CNCCO2)C2CC2)sc1Cc1nnn[nH]1` [Example 272], the IC50 amounted to 6.1 nM.
Take `CCOC[C@H]1CO[C@@H](C(=O)N(C2CC2)[C@H](C)c2nn(CCCNC(=O)OC)c3nc(C)ccc23)CN1` [Example 273]: the IC50 was 1 nM.
On to `COC(=O)NCCCc1cc([C@@H](C)N(C(=O)[C@H]2CNCCO2)C2CC2)sc1-c1cccc(F)c1O` [Example 274], for which the IC50 came out at 0.5 nM.
On to `COC(=O)NCCCc1cc([C@@H](C)N(C(=O)[C@H]2CNCCO2)C2CC2)sc1-c1cc(F)cc(F)c1O` [Example 275], for which the IC50 is 0.9 nM.
To `COC(=O)NCCCc1cc([C@@H](C)N(C(=O)[C@H]2CNCCO2)C2CC2)sc1-c1ccccc1-c1n[nH]c(=O)o1` [Example 276] belongs 0.5 nM.
For the compound `COC[C@@H]1CNC[C@H](C(=O)N(C2CC2)[C@H](C)c2cn(CCCNC(=O)OC)c(-c3ccc(F)cc3)n2)O1` [Example 277], the IC50 is 0.6 nM.
With `COC(=O)NCCCn1nc([C@@H](C)N(C(=O)[C@H]2CN[C@@H](COCC(F)(F)F)CO2)C2CC2)c2ccc(C)nc21` [Example 278], the IC50 is 1.2 nM.
Turning to `COC[C@H]1CO[C@@H](C(=O)N(C2CC2)[C@H](C)c2cn(CCCNC(=O)OC)c(-c3ccc(F)cc3)n2)CN1` [Example 279], the IC50 is 0.5 nM.
Consider `COC(=O)NCCCn1cc([C@@H](C)N(C(=O)[C@H]2CN[C@@H](C)CO2)C2CC2)nc1-c1ccc(F)cc1` [Example 280], for which the IC50 came to 0.3 nM.
The same measure for `COC(=O)NCCCc1cc([C@@H](C)N(C(=O)[C@H]2CNCCO2)C2CC2)sc1-c1ccccc1-c1cc(O)no1` [Example 281]: 0.4 nM; for `COC(=O)NCCCn1cc([C@@H](C)N(C(=O)[C@H]2CNC[C@@H](C)O2)C2CC2)nc1-c1ccc(F)cc1` [Example 282]: 0.6 nM.
`COC[C@H]1CO[C@@H](C(=O)N(C2CC2)[C@H](C)c2cc(CCCNC(=O)OC)n(-c3ccccc3)n2)CN1` [Example 283]: the IC50 was 0.9 nM.
`COC(=O)NCCCc1cc([C@@H](C)N(C(=O)[C@H]2CNCCO2)C2CC2)sc1-c1ccccc1CNS(=O)(=O)C(F)(F)F` [Example 284]: the IC50 is 1.3 nM.
With `COC[C@@H]1CNC[C@H](C(=O)N(C2CC2)[C@H](C)c2cc(CCCNC(=O)OC)n(-c3ccccc3)n2)O1` [Example 285], the IC50 came to 0.6 nM.
As for `COC(=O)NCCCc1cc([C@@H](C)N(C(=O)[C@H]2CNCCO2)C2CC2)sc1-c1ccccc1CNS(=O)(=O)CC(F)(F)F` [Example 286], the IC50 was found to be 0.4 nM.
As to `COC(=O)NCCCc1cc([C@@H](C)N(C(=O)[C@H]2CNCCO2)C2CC2)sc1-c1ccccc1C(=O)NS(C)(=O)=O` [Example 287], the IC50 turned out to be 0.8 nM.
Turning to `COC(=O)NCCCc1cc([C@@H](C)N(C(=O)[C@H]2CNCCO2)C2CC2)sc1-c1ccccc1C(=O)NS(=O)(=O)c1ccccc1` [Example 288], the IC50 came to 0.4 nM.
To `COC[C@H]1CO[C@@H](C(=O)N(C2CC2)[C@H](C)c2cn(CCCNC(=O)OC)c(C3CCCCC3)n2)CN1` [Example 289] belongs 0.5 nM; to `COC[C@@H]1CNC[C@H](C(=O)N(C2CC2)[C@H](C)c2cn(CCCNC(=O)OC)c(C3CCCCC3)n2)O1` [Example 290], 0.4 nM.
The same measure for `COC(=O)NCCCn1cc([C@@H](C)N(C(=O)[C@H]2CNCCO2)C2CC2)nc1C1CCOCC1` [Example 291]: 0.6 nM.
As for `COC[C@@H]1CNC[C@H](C(=O)N(C2CC2)[C@H](C)c2cn(CCCNC(=O)OC)c3ncccc23)O1` [Example 292], the IC50 came out at 0.4 nM.
On to `COC(=O)NCCCn1nc([C@@H](C)N(C(=O)[C@H]2CNC[C@@H](C(C)(C)O)O2)C2CC2)c2ccc(C)nc21` [Example 293], for which the IC50 is 7.7 nM.
Take `CCCCCc1cc([C@@H](C)N(C(=O)[C@H]2CNC[C@@H](C)O2)C2CC2)sc1-c1ccccc1-c1nn[nH]n1` [Example 294]: the IC50 amounted to 6 nM.
To `COC[C@H]1CO[C@@H](C(=O)N(C2CC2)[C@H](C)c2cn(CCCNC(=O)OC)c3ncccc23)CN1` [Example 295] belongs 1.5 nM.
To `C[C@@H]1CNC[C@H](C(=O)N(C2CC2)[C@H](C)c2cc(Cc3ccccc3)c(-c3ccccc3-c3nnn[nH]3)s2)O1` [Example 296] belongs 7 nM; to `COC(=O)NCCCc1cc([C@@H](C)N(C(=O)[C@H]2CNCCO2)C2CC2)sc1-c1ccccc1NS(=O)(=O)C(F)(F)F` [Example 297], 0.5 nM; to `COC(=O)NCCCc1nc(OC)cc([C@@H](C)N(C(=O)[C@H]2CNCCO2)C2CC2)n1` [Example 298], 3.5 nM.
The same measure for `COC(=O)NCCCn1cc([C@@H](C)N(C(=O)[C@H]2CN[C@@H](COCc3ccccc3)CO2)C2CC2)nc1C1CCOCC1` [Example 299]: 0.9 nM; for `COC[C@H]1CO[C@@H](C(=O)N(C2CC2)[C@H](C)c2cc(CCCNC(=O)OC)n(C(C)C)n2)CN1` [Example 300]: 2.8 nM; for `COC[C@@H]1CNC[C@H](C(=O)N(C2CC2)[C@H](C)c2cc(CCCNC(=O)OC)n(C(C)C)n2)O1` [Example 301]: 0.6 nM.
For `COC[C@H]1CO[C@@H](C(=O)N(C2CC2)[C@H](C)c2cc(CCCNC(=O)OC)n(C3CCOCC3)n2)CN1` [Example 302], the concentration for half-maximal inhibition (IC50) amounted to 1.6 nM.
On to `COC[C@@H]1CNC[C@H](C(=O)N(C2CC2)[C@H](C)c2cc(CCCNC(=O)OC)n(C3CCOCC3)n2)O1` [Example 303], for which the IC50 amounted to 0.8 nM.
As for `COCCCCc1cc([C@@H](C)N(C(=O)[C@H]2CNC[C@@H](COC)O2)C2CC2)cc(OC)n1` [Example 304], the IC50 stood at 0.7 nM.
Consider `COC(=O)NCCCn1nc([C@@H](C)N(C(=O)[C@H]2CN[C@@H](CC(F)F)CO2)C2CC2)c2ccc(C)nc21` [Example 305], for which the IC50 came out at 1.2 nM.
Regarding `COC(=O)NCCCc1cc([C@@H](C)N(C(=O)[C@H]2CN[C@@H](CC(F)F)CO2)C2CC2)cc(OC)n1` [Example 306], the IC50 worked out at 1.6 nM.
To `COC(=O)NCCCn1nc([C@@H](C)N(C(=O)[C@H]2CN[C@H](CC(F)F)CO2)C2CC2)c2ccc(C)nc21` [Example 307] belongs 6.6 nM; to `COC(=O)NCCCc1cc([C@H](C)N(C(=O)[C@H]2CNC[C@@H](CO)O2)C2CC2)cc(OC)n1` [Example 308], 0.5 nM; to `COC[C@H]1CO[C@@H](C(=O)N(C2CC2)[C@@H](C)c2cnc(OC)c(CCCNC(=O)OC)c2)CN1` [Example 309], 7.1 nM.
As for `COC[C@@H]1CNC[C@H](C(=O)N(C2CC2)[C@@H](C)c2cnc(OC)c(CCCNC(=O)OC)c2)O1` [Example 310], the IC50 was determined as 0.4 nM.
For the compound `CCOC[C@@H]1CNC[C@H](C(=O)N(C2CC2)[C@@H](C)c2cc(CCCNC(=O)OC)nc(OC)c2)O1` [Example 311], the IC50 turned out to be 0.4 nM.
Take `CCOC[C@@H]1CNC[C@H](C(=O)N(C2CC2)[C@@H](C)c2nn(CCCNC(=O)OC)c3nc(C)ccc23)O1` [Example 312]: the IC50 was 0.7 nM.
`COC(=O)NCCCn1cc([C@H](C)N(C(=O)[C@H]2CNCCO2)C2CC2)nc1Oc1ccccc1` [Example 313]: the IC50 turned out to be 2.5 nM.
Consider `COC(=O)NCCCc1cc([C@H](C)N(C(=O)[C@H]2CNC[C@@H](CF)O2)C2CC2)cc(OC)n1` [Example 314], for which the IC50 came to 0.5 nM.
For `COC(=O)NCCCc1cc([C@H](C)N(C(=O)[C@H]2CNCCO2)C2CC2)cnc1C(C)C` [Example 315], the IC50 amounted to 1 nM.
With `COC(=O)NCCCc1cc([C@H](C)N(C(=O)[C@H]2CNC[C@@H](CC#N)O2)C2CC2)cc(OC)n1` [Example 316], the IC50 turned out to be 1.4 nM.
To `COC(=O)NCCCc1cc([C@H](C)N(C(=O)[C@H]2CNCCO2)C2CC2)cnc1C1CCOCC1` [Example 317] belongs 0.6 nM; to `COC(=O)NCCCn1cc([C@H](C)N(C(=O)[C@H]2CN[C@@H](CC(F)F)CO2)C2CC2)nc1C1CCOCC1` [Example 318], 1.3 nM; to `COC(=O)NCCCn1cc([C@@H](C)N(C(=O)[C@H]2CNCCO2)C2CC2)nc1C(F)(F)F` [Example 319], 3.5 nM.
Take `COC[C@@H]1CNC[C@H](C(=O)N(C2CC2)[C@H](C)c2cn(CCCNC(=O)OC)c(C(F)(F)F)n2)O1` [Example 320]: the IC50 amounted to 3.2 nM.
For `COC(=O)NCCCc1cc([C@H](C)N(C(=O)[C@H]2CNC[C@@H](CN(C)C)O2)C2CC2)cc(OC)n1` [Example 321], the IC50 came out at 5.6 nM.
The same measure for `COC[C@H]1CO[C@@H](C(=O)N(C2CC2)[C@@H](C)c2cn(CCCNC(=O)OC)c(C3CCOCC3)n2)CN1` [Example 322]: 1.5 nM; for `COC[C@H]1CO[C@@H](C(=O)N(C2CC2)[C@@H](C)c2cc(C3CCOCC3)n(CCCNC(=O)OC)n2)CN1` [Example 323]: 2 nM; for `COC[C@@H]1CNC[C@H](C(=O)N(C2CC2)[C@H](C)c2cc(CCCNC(=O)OC)nc(C(F)(F)F)c2)O1` [Example 324]: 0.6 nM.
Take `COC(=O)NCCCc1cc([C@@H](C)N(C(=O)[C@H]2CNCCO2)C2CC2)cc(C(F)(F)F)n1` [Example 325]: the IC50 is 0.7 nM.
